Results on 23 compounds are retold here after patent publication US20130344026A1, “Dimeric Smac Mimetics” (priority 2009, published 2013).

The test system of the test is PANC-1 cells. Briefly: cell viability assay in PANC-1 cells (compound alone, + 100 ng/ml TNFa, + 300 ng/ml TRAIL). Type of test: cell-based.
Where [1] appears, read: with 100 ng/ml TNFa, Tables 6-10, read-out: IC50 (μM) in cell viability assay in PANC-1 cells: Compound + 100 ng/ml TNFa.
[2] abbreviates: with 300 ng/ml TRAIL, Tables 6-10, read-out: IC50 (μM) in cell viability assay in PANC-1 cells: Compound + 300 ng/ml TRAIL.
The mark [3] stands for this setting: Homo sapiens, PANC-1 cells, compound alone, read-out: IC50 (uM) in cell viability assay in PANC-1 cells, Cmpnd alone.
Where [4] appears, read: PANC-1 cells, + 100 ng/ml TNFa, read-out: IC50 (uM) in cell viability assay in PANC-1 cells, Cmpnd + 100 ng/ml TNFa.
The mark [5] stands for this setting: PANC-1 cells, + 300 ng/ml TRAIL, read-out: IC50 (uM) in cell viability assay in PANC-1 cells, Cmpnd + 300 ng/ml TRAIL.
[6] abbreviates: Homo sapiens, PANC-1, compound alone, Tables 6-10, read-out: IC50 (μM) in cell viability assay in PANC-1 cells: Compound alone.
Setting [7] is: Homo sapiens, PANC-1, compound alone, Tables 15-18, read-out: IC50 (uM) in cell viability assay in PANC-1 cells: Cmpnd alone.
The mark [8] stands for this setting: with 100 ng/ml TNFa, Tables 15-18, read-out: IC50 (uM) in cell viability assay in PANC-1 cells: Cmpnd + 100 ng/ml TNFa.
[9] abbreviates: with 300 ng/ml TRAIL, Tables 15-18, read-out: IC50 (uM) in cell viability assay in PANC-1 cells: Cmpnd + 300 ng/ml TRAIL.

Where two headings read alike, the source gives them in different places.

As for `CCCC[C@@H](C)NC(=O)c1cc(C(=O)N[C@H]2C[C@@H](C(=O)N[C@@H]3CCCc4ccccc43)N(C(=O)[C@@H](NC(=O)[C@H](C)NC)C(C)(C)C)C2)cc(C(=O)N[C@H]2C[C@@H](C(=O)N[C@@H]3CCCc4ccccc43)N(C(=O)[C@@H](NC(=O)[C@H](C)NC)C(C)(C)C)C2)c1` [Compound 129], the IC50 by setting is: (compound alone, Tables 6-10, read-out: IC50 (μM) in cell viability assay in PANC-1 cells: Compound alone) over 1 µM; under setting [1], 0.006 µM; under setting [2], 0.004 µM.

As for `CN[C@@H](C)C(=O)N[C@H](C(=O)N1C[C@@H](Oc2cccc(CCCCc3cccc(O[C@H]4C[C@@H](C(=O)N[C@@H]5CCCc6ccccc65)N(C(=O)[C@@H](NC(=O)[C@H](C)NC)C(C)(C)C)C4)c3)c2)C[C@H]1C(=O)N[C@@H]1CCCc2ccccc21)C(C)(C)C` [Compound P3-104], the IC50 runs as follows: under setting [3], over 1 µM; under setting [4], 0.042 µM; under setting [5], 0.042 µM.

As for `CN[C@@H](C)C(=O)N[C@H](C(=O)N1C[C@@H](NC(=O)c2cccc(C(=O)N[C@H]3C[C@@H](C(=O)N[C@H](C)Cc4ccccc4)N(C(=O)[C@@H](NC(=O)[C@H](C)NC)C(C)(C)C)C3)c2)C[C@H]1C(=O)NC(C)Cc1ccccc1)C(C)(C)C` (stereo partly drawn) [Compound 10], the IC50 is, setting by setting: under setting [6], over 1 µM; under setting [1], 0.065 µM; under setting [2], 0.085 µM.

Regarding `CN[C@@H](C)C(=O)N[C@H](C(=O)N1CCC[C@H]1C(=O)N[C@H](COC(=O)c1cccc(C(=O)OC[C@@H](NC(=O)[C@@H]2CCCN2C(=O)[C@@H](NC(=O)[C@H](C)NC)C(C)(C)C)c2ccccc2)c1)c1ccccc1)C(C)(C)C` [Compound P4-23], the IC50 under setting [7] is over 1 µM, the IC50 under setting [8] is 0.014 µM and the IC50 under setting [9] was 0.006 µM.

Consider `CN[C@@H](C)C(=O)N[C@H](C(=O)N[C@@H](CCNC(=O)c1cc(C(=O)N[C@H]2C[C@@H](C(=O)N[C@@H]3CCCc4ccccc43)N(C(=O)[C@@H](NC(=O)[C@H](C)NC)C(C)(C)C)C2)cc([N+](=O)[O-])c1)C(=O)N[C@H](C)C(C)C)C(C)C` [Compound 179], for which the IC50 runs as follows: under setting [6], over 1 µM; under setting [1], 0.056 µM; under setting [2], 0.048 µM.

On to `CN[C@@H](C)C(=O)N[C@H](C(=O)N1C[C@@H](NC(=O)c2cccc(C(=O)N[C@H]3C[C@@H](C(=O)NC4CCCc5ccc([N+](=O)[O-])cc54)N(C(=O)[C@@H](NC(=O)[C@H](C)NC)C(C)(C)C)C3)c2)C[C@H]1C(=O)NC1CCCc2ccc([N+](=O)[O-])cc21)C(C)(C)C` (single isomer, unassigned) [Compound 64], for which the IC50 under setting [6] was over 1 µM, the IC50 under setting [1] came to 0.18 µM and the IC50 under setting [2] is 0.151 µM.

Turning to `CN[C@@H](C)C(=O)NC(C(=O)N1CCC[C@H]1C(=O)NC1CCCc2ccccc21)c1ccc(CCc2ccc([C@H](NC(=O)[C@H](C)NC)C(=O)N3CCC[C@H]3C(=O)NC3CCCc4ccccc43)cc2)cc1` (stereo partly drawn) [Compound P2-35], the IC50 was over 1 µM under setting [7], 0.007 µM under setting [8] and 0.007 µM under setting [9].

In the case of `CN[C@@H](C)C(=O)NC(C(=O)N1C[C@@H](NC(=O)c2cccc(C(=O)N[C@H]3CC(C(=O)N[C@H](CO)[C@H](O)c4ccccc4)N(C(=O)[C@@H](NC(=O)[C@H](C)NC)C(C)(C)C)C3)c2)CC1C(=O)N[C@H](CO)[C@@H](O)c1ccccc1)C(C)(C)C` (stereo partly drawn) [Compound 42], the IC50 under setting [6] is over 1 µM, the IC50 under setting [1] stood at 0.753 µM and the IC50 under setting [2] was 0.645 µM.

As for `CN[C@@H](C)C(=O)N[C@@H](Cc1ccc(NC(=O)Nc2ccc(C[C@H](NC(=O)[C@H](C)NC)C(=O)N3CCC[C@H]3C(=O)N[C@@H]3CCCc4ccccc43)cc2)cc1)C(=O)N1CCC[C@H]1C(=O)N[C@@H]1CCCc2ccccc21` [Compound P2-38], the IC50 is, setting by setting: under setting [7], over 1 µM; under setting [8], 0.021 µM; under setting [9], 0.037 µM.

Regarding `CN[C@@H](C)C(=O)N[C@H](C(=O)N1C[C@@H](NC(=O)c2cccc(C(=O)N[C@H]3C[C@@H](C(=O)NCc4ccc(OC)c(O)c4)N(C(=O)[C@@H](NC(=O)[C@H](C)NC)C(C)(C)C)C3)c2)C[C@H]1C(=O)NCc1ccc(OC)c(O)c1)C(C)(C)C` [Compound 5], the IC50 under setting [6] is over 1 µM, the IC50 under setting [1] was found to be 0.706 µM and the IC50 under setting [2] is 0.982 µM.

Turning to `C#CC[C@H](NC(=O)[C@H](C)NC)C(=O)N1C[C@@H](NC(=O)c2cc(N)cc(C(=O)N[C@H]3C[C@@H](C(=O)N[C@@H]4CCCc5ccccc54)N(C(=O)[C@@H](NC(=O)[C@H](C)NC)C(C)(C)C)C3)c2)C[C@H]1C(=O)N[C@@H]1CCCc2ccccc21` [Compound H-6], the IC50 was over 1 µM under setting [7], 0.0229 µM under setting [8] and 0.0611 µM under setting [9].

For the compound `CN[C@@H](C)C(=O)N[C@@H](CCNC(=O)NCC[C@H](NC(=O)[C@H](C)NC)C(=O)N1CCC[C@H]1C(=O)N[C@@H]1CCCc2ccccc21)C(=O)N1CCC[C@H]1C(=O)N[C@@H]1CCCc2ccccc21` [Compound P2-39], the IC50 was over 1 µM under setting [7], 0.349 µM under setting [8] and 0.225 µM under setting [9].

Regarding `CN[C@@H](C)C(=O)N[C@H](C(=O)N1C[C@@H](NC(=O)c2cccc(C(=O)N[C@H]3C[C@@H](C(=O)N[C@H](CO)c4ccccc4)N(C(=O)[C@@H](NC(=O)[C@H](C)NC)C(C)(C)C)C3)c2)C[C@H]1C(=O)N[C@H](CO)c1ccccc1)C(C)(C)C` [Compound P3-99], the IC50 is over 1 µM under setting [3], 0.062 µM under setting [4] and 0.054 µM under setting [5].

On to `CN[C@@H](C)C(=O)N[C@H](C(=O)N1C[C@@H](NC(=O)c2cccc(C(=O)N[C@H]3C[C@@H](C(=O)N[C@@H]4CCCc5ccc(OC)cc54)N(C(=O)[C@@H](NC(=O)[C@H](C)NC)C(C)(C)C)C3)c2)C[C@H]1C(=O)N[C@@H]1CCCc2ccc(OC)cc21)C(C)(C)C` [Compound 44], for which the IC50 under setting [6] is over 1 µM, the IC50 under setting [1] came out at 0.215 µM and the IC50 under setting [2] was determined as 0.198 µM.

For the compound `CN[C@@H](C)C(=O)N[C@H](C(=O)N1C[C@@H](NC(=O)c2[nH]c(C(=O)N[C@H]3C[C@@H](C(=O)N[C@H](C)c4ccccc4)N(C(=O)[C@@H](NC(=O)[C@H](C)NC)C(C)(C)C)C3)c3c2OCCO3)C[C@H]1C(=O)N[C@H](C)c1ccccc1)C(C)(C)C` [Compound P3-95], the IC50 is over 1 µM under setting [3], 0.006 µM under setting [4] and 0.006 µM under setting [5].

For `CN[C@@H](C)C(=O)N[C@H](C(=O)N1CCC[C@H]1CN(CCCCCCN(CCc1ccccc1)C[C@@H]1CCCN1C(=O)[C@@H](NC(=O)[C@H](C)NC)C(C)(C)C)CCc1ccccc1)C(C)(C)C` [Compound P4-22], the IC50 reads like this: under setting [7], over 1 µM; under setting [8], 0.022 µM; under setting [9], 0.04 µM.

Regarding `CN[C@@H](C)C(=O)N[C@H](C(=O)N1C[C@@H](NC(=O)c2cc(C(=O)N[C@H]3C[C@@H](C(=O)N[C@H](C)Cc4ccccc4)N(C(=O)[C@@H](NC(=O)[C@H](C)NC)C(C)(C)C)C3)[nH]n2)C[C@H]1C(=O)N[C@H](C)Cc1ccccc1)C(C)(C)C` [Compound 11], the IC50 under setting [6] is over 1 µM, the IC50 under setting [1] turned out to be 0.834 µM and the IC50 under setting [2] is 0.545 µM.

As to `CN[C@@H](C)C(=O)N[C@@H](CCCCCC[C@H](NC(=O)[C@H](C)NC)C(=O)N1CCC[C@H]1c1ncc(C(=O)NC(c2ccccc2)c2ccccc2)o1)C(=O)N1CCC[C@H]1c1ncc(C(=O)NC(c2ccccc2)c2ccccc2)o1` [Compound 23], the IC50 by setting is: under setting [6], over 1 µM; under setting [1], over 1 µM; under setting [2], over 1 µM.

As for `CN[C@@H](C)C(=O)N[C@H](C(=O)N1CCC[C@H]1C(=O)N[C@H]1c2ccccc2C[C@@H]1OCC#CC#CCO[C@H]1Cc2ccccc2[C@@H]1NC(=O)[C@@H]1CCCN1C(=O)[C@@H](NC(=O)[C@H](C)NC)C(C)(C)C)C(C)(C)C` [Compound 121], the IC50 reads like this: under setting [6], over 1 µM; under setting [1], 0.0013 µM; under setting [2], 0.0015 µM.

As for `CN[C@@H](C)C(=O)N[C@H](C(=O)N1C[C@@H](NC(=O)c2cc(C(=O)N[C@H]3C[C@@H](C(=O)N[C@H](C)c4ccc(Cl)cc4)N(C(=O)[C@@H](NC(=O)[C@H](C)NC)C(C)(C)C)C3)[nH]n2)C[C@H]1C(=O)N[C@H](C)c1ccc(Cl)cc1)C(C)(C)C` [Compound P3-108], the IC50 is over 1 µM under setting [3], 0.012 µM under setting [4] and 0.036 µM under setting [5].

For `CN[C@@H](C)C(=O)N[C@H](C(=O)N1CCC[C@H]1Cn1ccnc1Cc1ccccc1)[C@@H](C)OCC#CC#CCO[C@H](C)[C@H](NC(=O)[C@H](C)NC)C(=O)N1CCC[C@H]1Cn1ccnc1Cc1ccccc1` [Compound 74], the IC50 under setting [6] was over 1 µM, the IC50 under setting [1] was over 1 µM and the IC50 under setting [2] is over 1 µM.

Take `CN[C@@H](C)C(=O)N[C@H](C(=O)N1C[C@@H](NC(=O)c2cc(C(=O)N[C@H]3C[C@@H](C(=O)N[C@H](C)c4ccccc4)N(C(=O)[C@@H](NC(=O)[C@H](C)NC)[C@@H](C)OC)C3)[nH]n2)C[C@H]1C(=O)N[C@H](C)c1ccccc1)[C@@H](C)OC` [Compound P3-110]: the IC50 reads like this: under setting [3], over 1 µM; under setting [4], 0.056 µM; under setting [5], 0.073 µM.

Regarding `CN[C@@H](C)C(=O)N[C@@H](CCCCCC[C@H](NC(=O)[C@H](C)NC)C(=O)N1CCC[C@H]1CNC(=O)c1ccccn1)C(=O)N1CCC[C@H]1CNC(=O)c1ccccn1` [Compound 17], the IC50 was over 1 µM under setting [6], over 1 µM under setting [1] and over 1 µM under setting [2].
